Experimental data taken from US10632064B2, “Topical regional neuro affective therapy with cannabinoid combination products” (Afgin Pharma, LLC, priority 2015, dated 2020).
Where “and” joins values, the source holds several entries; their conditions need not be identical. Equal entries are not always repeated. Entries after “also recorded” stand apart in the source; their conditions may differ.

How the values were obtained:
[1] = tested on: human patients; test: Example 5: topical cannabidiol (CBD) formulation on the back of the neck, 40 mg dose, patient cases (Table 1); type: in vivo
Protocol: The following patients were treated with a topical cannabidiol (CBD) formulation administered on the back of the neck on human patients at a 40 mg dose, as more specifically described below in Table 1: […]

[2] = tested on: human patient having a remote head injury, s/p 4 craniotomies and intractable seizures; test: Example 7: topical cannabidiol 40 mg at the BONATH, intractable seizures, EEG; type: in vivo; settings: cannabidiol 40 mg topical at BONATH
Protocol: The efficacy of a topical cannabidiol formulation was studied in a human patient having a remote head injury, s/p 4 craniotomies and intractable seizures. The patient was treated with cannabidiol 40 mg applied to the BONATH in a topical formulation. There was attenuation of associated focal EEG abnormalities.

[3] = tested on: patient with head injury and seizures; test: Example 14: 1 g of 1.6% CBD cream nuchal twice a day, intractable complex partial seizures, EEG; type: in vivo, human
Protocol: They presented with seizures (intractable complex partial seizures with secondary generalization; episodes of encephalopathy for 24 hours thereafter). […] They had had 5 craniotomies, and previously had been treated with Dilantin, Carbatrol, Keppra, Lamictal, and Depakote. Their current medications were Vimpat and Onfi (clobazam).
The patient was treated with 1 g of 1.6% CBD cream to the nuchal (back of the neck) region twice a day. […] The patient remained on Vimpat, and their dose of Onfi was reduced by half.

[4] = tested on: patients having a variety of conditions; test: Example 18: topical CBD cream compounded from crystalline powder (Table 7); type: in vivo, human; settings: 1% topical CBD; single patients
Protocol: The CBD was compounded in crystalline powder form rather than in CBD-oil form into the topical cream. The doses were 7.5 mg (0.75% topical CBD cream), 10 mg (1% topical CBD cream), 15 mg (1.5% topical CBD cream) or 20 mg (2% topical CBD cream).

SMILES: C=C(C)[C@@H]1CCC(C)=C[C@H]1c1c(O)cc(CCCCC)cc1O [CBD, cannabidiol]
- time after topical CBD at which the effect was seen ([1]; 40 mg topical CBD on back of neck, single patients): 10-15 minutes after nuchal and 15 minutes and within 15 minutes. and 10 minutes after topical CBD, and hand function within 15 minutes; and 20 minutes after 40 mg topical and 5 minutes after 40 mg topical and 5 minutes and 10-15 minutes after topical CBD,
- anxiety level after nuchal topical CBD ([1]; 40 mg, person in panic attack, before 7-8 of 10): anxiety from 7-8 of 10 to 4 of 10
- time without freezing episodes after one dose ([1]; one dose of 40 mg topical CBD, Parkinson's patient with 10-12 freezing episodes per day): over 24 hours; also more
- EEG post-treatment [2]: the right fast activity and sharp waves were attenuated
- seizure status on treatment ([3]; 16 mg nuchal topical CBD twice daily with Vimpat and Onfi, one year follow-up and 20 months): the patient was seizure-free; also recorded: remained seizure-free since June 2014
- follow-up EEG post-treatment ([3]; one year follow-up (FIG. 6)): right fast activity and sharp waves attenuated; also recorded: no longer showing seizure potential
- pain decrease [4]: 50%
